Laboratory results reported in ChEMBL document CHEMBL1201862, “PubChem BioAssay data set” (2004).
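Grown in 96-well plates, cells were treated for 48 hours with each compound at five concentrations. Insufficient inhibition: endpoint recorded as highest concentration tested. GI50 is the concentration that inhibits growth by half.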 The source made the active and inactive calls. No stated cut-off is given here; in the data, active = GI50 up to about 1.1 µM and inactive = higher.

Key:
Assay in all cases: NCI-60 cell line screen, 48 h
DU-145 = system: DU-145
MDA-MB-435 = system: MDA-MB-435
MDA-MB-231 = system: MDA-MB-231
DLD-1 = system: DLD-1
DMS-114 = system: DMS-114
HOP-18 = system: HOP-18
LXFL 529 = system: LXFL 529
RXF 631 = system: RXF 631
XF498 = system: XF498

Measured: GI50

O=[N+]([O-])c1ccc(-c2nc3cc([N+](=O)[O-])ccc3[nH]2)cc1
inactive: DU-145 27.9 µM | MDA-MB-435 29.4 µM

OC(c1cc(C(F)(F)F)nc2c(Cl)cc(Cl)cc12)C1CCCCN1 (stereo not given)
inactive: DU-145 7.01 µM | MDA-MB-231 > 22.1 µM | MDA-MB-435 5.61 µM

COC(=O)[C@@H]1O[C@]12[C@@H](CO[Si](C)(C)C(C)(C)C)O[C@@H](n1cc(C)c(=O)[nH]c1=O)[C@@H]2O[Si](C)(C)C(C)(C)C
inactive: DU-145 18.2 µM | MDA-MB-231 19.9 µM | MDA-MB-435 19.5 µM

Cc1cc(C)c(S(=O)(=O)N(CCCCN)OCCCN)c(C)c1
inactive: DU-145 15.6 µM | MDA-MB-435 16.6 µM

C=C1c2c(cc3c(c2O)c(=O)c2ccccc2n3C)OC1(C)C
inactive: DLD-1 > 100 µM | DMS-114 99.8 µM | HOP-18 9.79 µM | LXFL 529 > 100 µM | RXF 631 > 100 µM | XF498 28.6 µM

CCOC(=O)CCSS(=O)(=O)C(F)(F)F
inactive: DU-145 > 100 µM | MDA-MB-435 > 100 µM

O=C1CCCC(=O)N1CCc1c[nH]c2ccccc12
inactive: DLD-1 > 100 µM | DMS-114 > 100 µM | LXFL 529 > 100 µM | RXF 631 > 100 µM | XF498 > 100 µM

CC1(O)OC(=O)C2=C1CCC1C2CCC2(C)C(O)CCC12 (stereo not given)
inactive: DU-145 > 100 µM | MDA-MB-231 > 100 µM | MDA-MB-435 > 100 µM

O=C(NC(Cc1ccc(I)cc1)C(=O)O)c1ccc(I)cc1 (stereo not given)
inactive: DLD-1 > 100 µM | DMS-114 35.8 µM | HOP-18 > 100 µM | XF498 > 66.4 µM

COc1ccccc1C1C(Cl)C(=O)N1n1cnc2ccccc2c1=O (stereo not given)
inactive: DLD-1 > 100 µM | DMS-114 > 100 µM | HOP-18 39.6 µM | LXFL 529 > 100 µM | XF498 > 100 µM

Cc1cc(NC(=S)SCc2ccc(F)cc2)c([N+](=O)[O-])cc1C
inactive: DU-145 32.2 µM | MDA-MB-231 14.6 µM | MDA-MB-435 26.7 µM

C=C(C)C(=O)[C@@]12C(=O)[C@@H](C)CC[C@H]1[C@H](C)C[C@@H]2C=C(C)C
inactive: DU-145 38.4 µM | MDA-MB-231 21.9 µM | MDA-MB-435 20.3 µM

COc1ccc(C2C(=O)c3ccc(OC)cc3OC2c2cccnc2)cc1 (stereo not given)
inactive: DU-145 > 100 µM | MDA-MB-231 > 100 µM | MDA-MB-435 > 100 µM

CC(=O)O[C@@H]1[C@H]2[C@@H](OC(=O)c3ccccc3)[C@@H](C)C[C@]2(O)[C@H](OC(C)=O)[C@@]2(C)[C@@H]3C[C@@](C)(OC(C)=O)C[C@@H](OC(C)=O)[C@@]3(OC(C)=O)C[C@@]12C
inactive: DU-145 > 10 µM | MDA-MB-231 > 10 µM | MDA-MB-435 > 10 µM

COc1cc(C2C(C(=O)O)=C(COC(C)=O)Oc3cc4c(cc32)OCO4)cc(OC)c1OC (stereo not given)
inactive: DMS-114 > 100 µM | HOP-18 > 100 µM | RXF 631 > 100 µM | XF498 > 100 µM

c1c2c(cc(-n3nnc4c3CCCCCC4)c1-n1nnc3c1CCCCCC3)CCCCCC2
inactive: RXF 631 10.1 µM | XF498 1.9 µM

CC(=O)OCC1OC(N2C(=O)NC(=O)C3C=C4CCCCC4=CC32)C(OC(C)=O)C1OC(C)=O (stereo not given)
inactive: DU-145 > 100 µM | MDA-MB-231 > 100 µM | MDA-MB-435 > 100 µM

COc1ccccc1Cc1nc(-c2ccccc2)nn(C2OC(COC(C)=O)C(OC(C)=O)C(OC(C)=O)C2OC(C)=O)c1=S (stereo not given)
inactive: DLD-1 > 31.3 µM | DMS-114 27.6 µM | HOP-18 27.9 µM | XF498 1.86 µM

O=C1CC(=O)c2c(O)cc(O)c(c2O)-c2c(ccc(O)c2O)C2=CC(=O)c3c(O)cc(O)c(c3O2)-c2c1ccc(O)c2O.O=C1CC2(O)Oc3c1c(O)cc(O)c3-c1c(ccc(O)c1O)-c1cc(=O)c3c(O)cc(O)c(c3o1)-c1c2ccc(O)c1O
inactive: DU-145 > 50 µM | MDA-MB-231 > 50 µM | MDA-MB-435 > 50 µM

CC1C(=O)C(C)C(c2cccs2)N(N=O)C1c1cccs1 (stereo not given)
inactive: DLD-1 > 100 µM | DMS-114 95.1 µM | HOP-18 11.4 µM | XF498 14.8 µM

COc1ccc(/C=C2\CCNC2=O)cc1
inactive: DLD-1 > 100 µM | DMS-114 > 100 µM | HOP-18 > 100 µM | XF498 > 100 µM

Clc1ccc(C(SCc2ccccc2)SCc2ccccc2)cc1
inactive: DU-145 > 10 µM | MDA-MB-231 > 10 µM

CC(C)(C)N1C(C(=O)c2ccccc2)C1c1ccccc1 (stereo not given)
inactive: DLD-1 > 100 µM | LXFL 529 > 100 µM | RXF 631 > 100 µM

CC(NC(=O)C(C)NC(=O)C(N)CCP(C)(=O)O)C(=O)O (stereo not given)
inactive: DLD-1 > 100 µM | HOP-18 > 100 µM | XF498 > 100 µM

COC(=O)c1cc2c(cc1CC(Cc1ccc3c(c1)CCC3)C(=O)OC)CCC2 (stereo not given)
inactive: DU-145 83.8 µM | MDA-MB-231 70.6 µM | MDA-MB-435 31 µM

c1ccc(C(NC2=NCCO2)C2CC2)cc1 (stereo not given)
inactive: DU-145 > 100 µM | MDA-MB-231 > 100 µM | MDA-MB-435 75.9 µM

Cc1cc2c(cc1C)N1Cc3c(ccc(C)c3C)N(C2)C1.Cc1cc2c(cc1C)N1Cc3cc(C)c(C)cc3N(C2)C1
inactive: DLD-1 > 100 µM | DMS-114 > 100 µM | HOP-18 > 100 µM | LXFL 529 > 100 µM | XF498 > 100 µM

Cc1nc2c(sc(=S)n2-c2ccccc2)c(=O)[nH]1
inactive: DLD-1 > 100 µM | HOP-18 > 100 µM | LXFL 529 > 100 µM

CCCCCCCCC(O)c1ccc(/C=C\C(O)CCCC(=O)O)s1 (stereo not given)
inactive: DLD-1 > 100 µM | DMS-114 > 100 µM | HOP-18 > 100 µM | LXFL 529 > 100 µM | XF498 > 100 µM

O=C(O)c1cnc2c(ccc3ncc(C(=O)O)c(O)c32)c1O
inactive: DU-145 > 100 µM | MDA-MB-231 > 100 µM | MDA-MB-435 > 100 µM

Oc1ccc(-c2nc3cc(C(F)(F)F)ccc3s2)cc1
inactive: DU-145 16.4 µM | MDA-MB-231 14.2 µM | MDA-MB-435 15.7 µM

O=c1c(-c2ccc(O)cc2)coc2cc(O)cc(O)c12 [GENISTEIN]
inactive: DU-145 92.5 µM | MDA-MB-435 > 100 µM

COc1cc(NC(C)CCCN)c2ncccc2c1 (stereo not given) [PRIMAQUINE PHOSPHATE]
inactive: DLD-1 76.6 µM | DMS-114 37.7 µM | DU-145 99.1 µM | HOP-18 > 36.1 µM | LXFL 529 60.7 µM | MDA-MB-231 43.7 µM | MDA-MB-435 38 µM | RXF 631 > 91.2 µM | XF498 35 µM
